Data published in PMC2365101, “Anti-Inflammatory Activity of (Polyphenolic)-Sulfonates and Their Sodium Salts in Rodents” (Metal-Based Drugs, 1998).

What was measured:
[1] = biological target: IC-21 macrophage elastase; assay: Elastase activity in IC-21 macrophages; assay type: biochemical, mouse
[2] = tested on: CF1 male mice, LPS Salmonella abortus equi induced death; assay: Protection against septic shock (LPS induced endotoxic shock); assay type: in vivo; conditions: for Percent Survival at 52 hr: LPS 10 mg/kg, CF1 male mice, N=6
Source text: (§1) Few reports in the literature indicate interaction at these receptor sites other than by peptides or antibodies. […] Blocking these receptors is desirable because the entire inflammation cascade of events is triggered by the early release of TNFa and IL-1. […] Radioisotopes were obtained from New England Nuclear [Dupont, Boston, MA] and substrates and co- factors were obtained from Sigma Chemical Co. [St. Louis, MO]. […] Cell lines were obtained from American Type Culture Collection [Rockville, MD]. In Vivo Tests Anti-inflammatory screen in mice: Male CF male mice weighing 28-32g obtained from Jackson Lab. [Bar Harbor, MA] were used to screen agents at 8 or 16 mg/kg intraperitoneal [I.P.] x 2 administered 3 hr and 30 min prior to administering the irritant, according to Winter's protocol. Evaluation of the induced edema was made by injecting 2% carrageenan in 0.9% saline into the plantar region of the foot. The opposite foot injected with 0.9% isotonic saline was used as a base line. […] Salmonella abortus equi [Lot # 69F4003] […] Drugs from 2 to 16 mg/kg, I.P. were administered 2 hr prior and 2 hr post-injection of the LPS and then subsequently for every 24 hr for the length ofthe animals' lives. Deaths were recorded every 12 hr and continued for 96 hr. […] In vitro TNFa andIL-1 Measurements and Cellular Regulation IC-21 mouse macrophages were maintained in RPMI-1640 + 10% FCS + P/S. After the cells had grown to confluency, E. coli LPS at 10 Ixg/ml was added to the medium. Agents were incubated at 12.5 to 100 µM final concentration for 18 hr. The medium (100 btl) was collected for TNFCt determinations. Interleukin-1 [IL-1] release was determined using P388D1 cells which were maintained in RPMI-1640 + 10% FCS + P/S. The L929 bioassay was used to quantitate the TNF and the IL-1 levels. The L929 mouse fibroblasts were grown in DMEM + 10% FCS + P/S to confluency in 96 well plates and incubated with 100 tl ofmedium from […] or P388D cells after 18 hr. The cells were stained with 0.2% crystal violet in 20% MeOH and read at 580 nm using a Molecular Devices scanner (SOFT-max program). High Affinity Binding to Receptors on L929-106 Cells Two laCi of 125I-TNFct (human recombinant, 30 mCi/tg New England Nuclear) or 125I-IL-1 (70-120[.t Ci/lxg,New England Nuclear) was added to confluency L929 cells for 90 min or 5 hr, respectively with 25, 50 and 100 tM of the test compounds 12]. The cells were washed repeatedly with isotonic saline, pH.7.2 and aliquots counted. Prostaglandin cylcooxygenase activity Mouse J774AI macrophages maintained in Dulbecco's modified Eagle's medium + 15% FCS + P/S. Cells (5 x 106) were incubated with agents (5 to 100 ].tM final concentration) and 3H-arachidonic acid (100 Ci/mol) for 60 min at 37C in a CO2 incubator. The reaction was terminated with 2N HCI, the mixture extracted 2 X with ether, and the organic layer evaporated.

[3] = biological target: J774-A1 macrophage elastase; assay: Elastase activity in J774-A1 macrophages; assay type: biochemical, mouse
[4] = tested on: CF1 male mice, carrageenan induced edema; assay: Anti-inflammatory screen in mice (carrageenan induced foot edema); assay type: in vivo; conditions: for reduction of edema: 16 mg/kg X 2
Source text: as §1, with “[Bar Harbor, MA] were used to screen agents at 8 or 16 mg/kg intraperitoneal [I.P.] x 2 administered 3 hr and 30 min prior to administering the irritant, according to Winter's protocol.” left out

[5] = biological target: J774-A1 prostaglandin cyclooxygenase; assay: Prostaglandin cyclooxygenase activity in J774-A1 macrophages; assay type: cell-based, mouse; conditions: 60 min; read-out: IC50 Cyclo-oxygenase J774-A1
Source text: as §1

[6] = biological target: human leukocyte elastase (RPMI 1788); assay: Elastase activity in human leukocytes RPMI 1788; assay type: biochemical
[7] = tested on: CF1 male mice, LPS Salmonella abortus equi induced death; assay: Protection against septic shock (LPS induced endotoxic shock); assay type: in vivo
[8] = tested on: cytokine synthesis and release; conditions: tissue culture; no reference given; read-out: IC50 to block cytokine synthesis and release; cited from earlier work
[9] = 8 mg/Kg X 2, I.P., CF1 male mice, N=6
[10] = 16 mg/Kg X 2, I.P., CF1 male mice, N=6

Row | Structure (SMILES) | IC50 ([1]; 60 min) [µM] | IC50 ([1]; 120 min) [µM] | Percent Survival at 52 hr ([2]; 4 mg/Kg I.P.) [%] | Percent Survival at 52 hr ([2]; 8 mg/Kg I.P.) [%] | protection from LPS induced death ([2]; 16 mg/kg) [%] | IC50 ([3]; 120 min) [µM] | Percent of Control (induced edema) [4, 9] | Percent of Control (induced edema) [4, 10] | IC50 [5] [µM] | IC50 ([6]; 60 min) [µM] | IC50 ([6]; 120 min) [µM] | Percent Survival at 52 hr ([2]; 16 mg/Kg I.P.) [%] | IC50 ([3]; 60 min) [µM] | further results
1 | O=S(=O)(O)c1cc2c(O)c(c1)Cc1cc(S(=O)(=O)O)cc(c1O)Cc1cc(S(=O)(=O)O)cc(c1O)Cc1cc(S(=O)(=O)O)cc(c1O)Cc1cc(S(=O)(=O)O)cc(c1O)Cc1cc(S(=O)(=O)O)cc(c1O)Cc1cc(S(=O)(=O)O)cc(c1O)Cc1cc(S(=O)(=O)O)cc(c1O)C2 [Compound 1] | 54 | 45 | 50 | 50 | 83 | 360 | 51 + 4% of Control | 56+ 5% of Control | 20.6 | 57 | 56 |  |  | reduction of edema [4]: greater than 40%
2 | O=S(=O)(O)c1cc2c(O)c(c1)Cc1cc(S(=O)(=O)O)cc(c1O)Cc1cc(S(=O)(=O)O)cc(c1O)Cc1cc(S(=O)(=O)O)cc(c1O)Cc1cc(S(=O)(=O)O)cc(c1O)Cc1cc(S(=O)(=O)O)cc(c1O)C2 [Compound 2] |  |  | 50 | 50 | 83 | 240 | 47 + 4% of Control | 74+ 5% of Control | 76.2 | 67 | 57 | 83 | 7.9 | Percent Survival at 52 hr ([2]; 2 mg/kg I.P.): 83%
3 | O=S(=O)(O)c1cc2c(O)c(c1)Cc1cc(S(=O)(=O)O)cc(c1O)Cc1cc(S(=O)(=O)O)cc(c1O)Cc1cc(S(=O)(=O)O)cc(c1O)C2 [Compound 3] | 73 | 25 | 50 | 100 |  | 280 | 58 + 6% of Control | 61 +5% of Control | 27.7 | 73 | 25 | 50 | 10 to 30 | Percent Survival at 52 hr ([2]; 2 mg/kg I.P.): 67%; protection from LPS induced death ([2]; 8 mg/kg): 100%; IC50 ([3]; 60 min, listed as #3): 28.8 µM
4 | COc1c2cc(S(=O)(=O)O)cc1Cc1cc(S(=O)(=O)O)cc(c1OC)Cc1cc(S(=O)(=O)O)cc(c1OC)Cc1cc(S(=O)(=O)O)cc(c1OC)Cc1cc(S(=O)(=O)O)cc(c1OC)Cc1cc(S(=O)(=O)O)cc(c1OC)Cc1cc(S(=O)(=O)O)cc(c1OC)Cc1cc(S(=O)(=O)O)cc(c1OC)C2 [Compound 4] | 57 | 56 | 33 | 67 | 83 | 270 | 56 + 6% of Control | 48+4% of Control | 59.2 | 54 | 45 | 83 | 0.3 | reduction of edema [4]: greater than 40%
5 | COc1c2cc(S(=O)(=O)[O-])cc1Cc1cc(S(=O)(=O)[O-])cc(c1OC)Cc1cc(S(=O)(=O)[O-])cc(c1OC)Cc1cc(S(=O)(=O)[O-])cc(c1OC)C2.[Na+].[Na+].[Na+].[Na+] [Compound 5] |  | 111 |  | 33 | 67 |  |  | 61 +5% of Control | 65.1 |  |  | 67 |  | IC50 Elastase J774-A1 ([3]; 120 min): Increased
6 | CC(=O)CCCCn1c(=O)c2c(ncn2C)n(C)c1=O [Pentoxifylline, pentoxifylline] |  |  |  |  |  |  |  |  |  |  |  |  |  | Percent Survival at 52 hr ([7]; 50 mg/Kg/day): 67 + 6%; protection from LPS induced death ([7]; 50 mg/kg): 67%; Percent of Control (induced edema) ([4]; 50 mg/Kg X 2, CF1 male mice): 70 + 6% of Control
7 | CCCCC1C(=O)N(c2ccccc2)N(c2ccccc2)C1=O [Phenylbutazone, phenylbutazone, reference compound] |  |  |  |  |  |  |  |  |  |  |  |  |  | reduction in edema ([4]; 50 mg/kg X 2): 47%
8 | C[C@@H]1C[C@H]2[C@@H]3CCC4=CC(=O)C=C[C@]4(C)[C@@]3(F)[C@@H](O)C[C@]2(C)[C@@]1(O)C(=O)CO [dexamethasone, reference compound] |  |  |  |  |  |  |  |  |  |  |  |  |  | protection from LPS induced death ([2]; dexamethasone dose printed 'at mg/kg' (methods: 1 mg/kg)): 67%
9 | C[C@]12CCC(=O)C=C1CC[C@@H]1[C@@H]2[C@@H](O)C[C@@]2(C)[C@H]1CC[C@]2(O)C(=O)CO [hydrocortisone] |  |  |  |  |  |  |  |  |  |  |  |  |  | IC50 [8]: 10 µM
10 | N=C(N)c1ccc(OCCCCCOc2ccc(C(=N)N)cc2)cc1 [pentamidine] |  |  |  |  |  |  |  |  |  |  |  |  |  | IC50 [8]: 1 µM
